Molecular target: T1, PRKD1 (PKC mu) (Homo sapiens, UniProt Q15139)
T1 construct: purchased Thermo Fisher Scientific (Life Technologies) SelectScreen
Assay: SelectScreen Z'LYTE
Assay type: biochemical
Summary of the method: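 SelectScreen broad panel; activity (Z'LYTE, Adapta) plus binding formats. ATP: Km app for CSF1R Z'LYTE; 10 for CAMK1 Adapta. Readout = % per kinase.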

T1 sequence (Q15139 whole entry): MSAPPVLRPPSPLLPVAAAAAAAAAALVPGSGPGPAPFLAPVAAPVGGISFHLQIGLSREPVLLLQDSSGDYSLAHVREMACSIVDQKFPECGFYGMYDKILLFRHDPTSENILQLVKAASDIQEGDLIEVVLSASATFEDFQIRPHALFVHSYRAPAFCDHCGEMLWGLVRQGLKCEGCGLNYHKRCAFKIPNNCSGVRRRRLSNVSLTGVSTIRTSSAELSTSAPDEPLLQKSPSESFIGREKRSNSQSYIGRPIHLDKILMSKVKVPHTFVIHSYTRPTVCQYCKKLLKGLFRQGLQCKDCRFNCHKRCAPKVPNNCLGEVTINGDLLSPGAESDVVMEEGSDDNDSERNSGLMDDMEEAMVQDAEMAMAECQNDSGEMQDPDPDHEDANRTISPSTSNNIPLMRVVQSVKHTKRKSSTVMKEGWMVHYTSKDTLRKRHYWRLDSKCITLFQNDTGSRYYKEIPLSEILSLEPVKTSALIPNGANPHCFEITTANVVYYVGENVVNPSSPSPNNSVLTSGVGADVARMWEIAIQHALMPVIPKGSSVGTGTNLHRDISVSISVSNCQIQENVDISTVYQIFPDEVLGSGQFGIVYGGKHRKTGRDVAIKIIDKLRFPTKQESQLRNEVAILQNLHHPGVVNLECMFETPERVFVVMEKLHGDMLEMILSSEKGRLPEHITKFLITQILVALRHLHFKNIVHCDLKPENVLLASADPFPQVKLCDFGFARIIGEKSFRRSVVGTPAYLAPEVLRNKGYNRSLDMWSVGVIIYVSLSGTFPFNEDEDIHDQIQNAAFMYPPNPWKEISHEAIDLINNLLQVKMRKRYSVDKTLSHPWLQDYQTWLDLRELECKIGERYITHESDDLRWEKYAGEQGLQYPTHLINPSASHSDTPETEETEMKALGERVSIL

CN(C(=O)CN1CCOCC1)c1ccc2sc3c(-c4cccc5c(=O)cc(N6CC7CCC(C6)O7)oc45)cccc3c2c1 [NU5455]
inhibition at 1 µM: -8.5%

— PMC6934184, “Selective DNA-PKcs inhibition extends the therapeutic index of localized radiotherapy and chemotherapy” (The Journal of Clinical Investigation, 2019)
